Laboratory results: patent US20230149362A1, “NEW CAPSULE COMPOSITION FOR PERORAL ADMINISTRATION” (Vicore Pharma AB, priority 2020, published 2023)
≈ marks a conversion by molar mass, not a printed value. Where two headings read alike, the source gives them in different places.

Tests used:
[1] = Solubility of free C21 in aqueous vehicles (saturated solutions, HPLC); format: physicochemical; conditions: for solubility at 48 h: thermodynamic from solid, read-out: Concentration (solubility)
Source text: Vehicles (with sources) were as follows: sodium chloride (Sigma), ethanol (99.5%, Kemetyl), polyethylene glycols (BASF), phosphate buffered saline (PBS) pH 7.4 (Sigma), buffer solution pH 2.00 (citric acid, sodium hydroxide, hydrogen chloride), buffer solution pH 4.00 (citric acid, sodium hydroxide), buffer solution pH 6.00 (citric acid, sodium hydroxide), buffer solution pH 8.00 (boric acid, sodium hydroxide, hydrogen chloride) and buffer solution pH 10.00 (boric acid, sodium hydroxide, hydrogen chloride) (all Merck), and purified water (Elga Option 4 water purifier).
Saturated solutions of free C21 (obtained from Syntagon AB, Södertälje, Sweden) were prepared in duplicates. The samples were kept magnetically stirred for 48 hours prior to analysis. For some samples, the added substance was dissolved and more was thereafter added to obtain saturated solutions.
After 48 hours, pH was measured and thereafter 1 mL of solution was withdrawn. Undissolved substance was removed by centrifugation (1500 rpm, 30 minutes). The supernatant was diluted 10 to 500 times with acetonitrile/H2O, 30:70.
C21 content was measured by HPLC.

[2] = Stability of aqueous solutions of C21 under four storage conditions (sensitivity to light); format: physicochemical; conditions: for Amount of Free C21, % of initial / Solution pH: 1 mg/mL in 0.9% NaCl
Procedure: The stability of free C21 in 0.9% NaCl pH 9.4 was investigated.
Solutions of 1 mg/mL of C21 were studied for four weeks under four different storage conditions. The solution was filtered through a 0.22 sterile syringe filter to minimize bacterial growth during the stability test. The samples were analysed by HPLC for purity.
The results are summarised in Table 3 below, in which the amount of C21 is given as a percentage of the initial amount of drug. Solution pHs were also measured and are shown within parenthesis in Table 3.
The stability of the sodium salt of C21 was also investigated under the same storage conditions.
At the time for analysis of the one week samples, it was noted that the heating cabinet for storage of samples at 40° C. was broken. In view of this, these samples were thereafter kept at room temperature for three days.

solubility at 48 h ([1]; 0.9% NaCl, pH 7.3, saline or isotonic, vehicle 0.9% NaCl, pH 7.3): 120 µg/mL (≈ 252 µM)
solubility at 48 h ([1]; 0.9% NaCl, pH 8.3, saline or isotonic, vehicle 0.9% NaCl, pH 8.3 adjusted by NaOH, one sample): 1580 µg/mL (≈ 3320 µM)
solubility at 48 h ([1]; 0.9% NaCl, pH 9.7, saline or isotonic, vehicle 0.9% NaCl, pH 9.7 adjusted by NaOH): 27400 µg/mL (≈ 57600 µM)
solubility at 48 h ([1]; 0.9% NaCl/EtOH 95:5 v/v, pH 7.9, aqueous with cosolvent or surfactant or cyclodextrin, vehicle 0.9% NaCl/EtOH 95:5 v/v, pH 7.9, one sample): 570 µg/mL (≈ 1200 µM)
solubility at 48 h ([1]; PBS pH 7.4, pH 7.7, aqueous buffer, vehicle Buffer/PBS pH 7.4, measured pH 7.7): 240 µg/mL (≈ 505 µM)
solubility at 48 h ([1]; PEG/EtOH/H2O (40:10:50), pH 6.1, aqueous with cosolvent or surfactant or cyclodextrin, vehicle PEG/EtOH/H2O (40:10:50), pH 6.1): 830 µg/mL (≈ 1750 µM)
solubility at 48 h ([1]; PEG/H2O (25:75), pH 5.5, aqueous with cosolvent or surfactant or cyclodextrin, vehicle PEG/H2O (25:75), pH 5.5): 170 µg/mL (≈ 357 µM)
solubility at 48 h ([1]; PEG/H2O (50:50), pH 6.2, aqueous with cosolvent or surfactant or cyclodextrin, vehicle PEG/H2O (50:50), pH 6.2): 610 µg/mL (≈ 1280 µM)
solubility at 48 h ([1]; PG/EtOH/H2O (40:10:50), pH 6.3, aqueous with cosolvent or surfactant or cyclodextrin, vehicle PG/EtOH/H2O (40:10:50), pH 6.3): 790 µg/mL (≈ 1660 µM)
solubility at 48 h ([1]; PG/H2O (10:90), pH 7.5, aqueous with cosolvent or surfactant or cyclodextrin, vehicle PG/H2O (10:90), pH 7.5): 220 µg/mL (≈ 463 µM)
solubility at 48 h ([1]; PG/H2O (25:75), pH 6.9, aqueous with cosolvent or surfactant or cyclodextrin, vehicle PG/H2O (25:75), pH 6.9): 300 µg/mL (≈ 631 µM)
solubility at 48 h ([1]; boric acid buffer pH 8.0, pH 7.9, aqueous buffer, vehicle Buffer/Boric acid pH 8.0, measured pH 7.9): 500 µg/mL (≈ 1050 µM)
solubility at 48 h ([1]; boric acid buffer pH 10.0, pH 8.7, aqueous buffer, vehicle Buffer/Boric acid pH 10.0, measured pH 8.7): 19100 µg/mL (≈ 40200 µM)
solubility at 48 h ([1]; citric acid buffer pH 2.0, pH 2.3, aqueous buffer, vehicle Buffer/Citric acid pH 2.0, measured pH 2.3): 3950 µg/mL (≈ 8300 µM)
solubility at 48 h ([1]; citric acid buffer pH 4.0, pH 4, aqueous buffer, vehicle Buffer/Citric acid pH 4.0, measured pH 4.0): 80 µg/mL (≈ 168 µM)
solubility at 48 h ([1]; citric acid buffer pH 6.0, pH 6, aqueous buffer, vehicle Buffer/Citric acid pH 6.0, measured pH 6.0): 60 µg/mL (≈ 126 µM)
Concentration (solubility) ([1]; vehicle Buffer/Boric acid pH 10.0, measured pH 8.7): 19900 µg/mL
solubility at 48 h ([1]; water, pH 7.3, water, vehicle H2O, pH 7.3, stirred 48 hours): 150 µg/mL (≈ 315 µM)
Amount of Free C21, % of initial ([2]; 5° C., dark, 1 week): 101 % of initial
Solution pH ([2]; 5° C., dark, 1 week): (9.2)
Amount of Free C21, % of initial ([2]; 5° C., dark, 2 weeks): 107 % of initial
Solution pH ([2]; 5° C., dark, 2 weeks): (9.2)
Amount of Free C21, % of initial ([2]; 5° C., dark, 3 weeks): 108 % of initial
Solution pH ([2]; 5° C., dark, 3 weeks): (9.1)
Amount of Free C21, % of initial ([2]; 5° C., dark, 4 weeks): 108 % of initial
Solution pH ([2]; 5° C., dark, 4 weeks): (9.2)
Amount of Free C21, % of initial ([2]; 5° C., dark, Initial): 100 % of initial
Solution pH ([2]; 5° C., dark, Initial): (9.4)
Amount of Free C21, % of initial ([2]; 40° C., dark, 1 week): 101 % of initial
Solution pH ([2]; 40° C., dark, 1 week): (9.0)
Amount of Free C21, % of initial ([2]; 40° C., dark, 2 weeks): 111 % of initial
Solution pH ([2]; 40° C., dark, 2 weeks): (8.6)
Amount of Free C21, % of initial ([2]; 40° C., dark, 3 weeks): 106 % of initial
Solution pH ([2]; 40° C., dark, 3 weeks): (8.7)
Amount of Free C21, % of initial ([2]; 40° C., dark, 4 weeks): 107 % of initial
Solution pH ([2]; 40° C., dark, 4 weeks): (8.7)
Amount of Free C21, % of initial ([2]; 40° C., dark, Initial): 100 % of initial
Solution pH ([2]; 40° C., dark, Initial): (9.4)
Amount of Free C21, % of initial ([2]; RT, dark, 1 week): 97 % of initial
Solution pH ([2]; RT, dark, 1 week): (9.2)
Amount of Free C21, % of initial ([2]; RT, dark, 2 weeks): 109 % of initial
Solution pH ([2]; RT, dark, 2 weeks): (8.9)
Amount of Free C21, % of initial ([2]; RT, dark, 3 weeks): 105 % of initial
Solution pH ([2]; RT, dark, 3 weeks): (9.0)
Amount of Free C21, % of initial ([2]; RT, dark, 4 weeks): 106 % of initial
Solution pH ([2]; RT, dark, 4 weeks): (8.9)
Amount of Free C21, % of initial ([2]; RT, dark, Initial): 100 % of initial
Solution pH ([2]; RT, dark, Initial): (9.4)
Amount of Free C21, % of initial ([2]; RT, light, 1 week): 96 % of initial
Solution pH ([2]; RT, light, 1 week): (9.0)
Solution pH ([2]; RT, light, 2 weeks): (8.0)
Amount of Free C21, % of initial ([2]; RT, light, 2 weeks, precipitation, filtered): 44 % of initial
Amount of Free C21, % of initial ([2]; RT, light, 3 weeks): 96 % of initial
Solution pH ([2]; RT, light, 3 weeks): (8.5)
Solution pH ([2]; RT, light, 4 weeks): (7.7)
Amount of Free C21, % of initial ([2]; RT, light, 4 weeks, precipitation, filtered): 13 % of initial
Amount of Free C21, % of initial ([2]; RT, light, Initial): 100 % of initial
Solution pH ([2]; RT, light, Initial): (9.4)
total impurity peak area ([2]; samples stored at 5° C., RT/dark and 40° C.): around 2.5 area% of C21 peak area
chemical stability in aqueous solution ([2]; stored in dark at 5° C., RT and 40° C., four weeks): chemically stable
SMILES: CCCCOC(=O)NS(=O)(=O)c1sc(CC(C)C)cc1-c1ccc(Cn2ccnc2)cc1 [free C21, N-butyloxycarbonyl-3-(4-imidazol-1-ylmethylphenyl)-5-iso-butylthiophene-2-sulfonamide]
